Data published in patent US12729194B2, “Compounds for the treatment of human immunodeficiency virus” (priority 2019, dated 2026).

Legend:
[1] = test system: cell-surface HIV-1AD8 Env (A549-Env cells); assay: Immunoprecipitation of cell-surface Env by antibody panel; type: cell-based; conditions: 10 μM
Experimental: Immunoprecipitation of cell-surface Env: Doxycycline-induced A549-Env cells were washed twice with washing buffer (1×PBS+5% FBS), with or without 10 μM BMS-806 or compounds described herein. The cells were then incubated with 5 μg/ml antibody for one hour at 4° C. in the continued presence or absence of the compounds described herein. After washing four times in washing buffer, the cells were lysed in NP-40 lysis buffer (0.5% NP-40, 0.5 M NaCl, 10 mM Tris, pH 7.5) for five minutes at 4° C. with gentle agitation. Unless specifically indicated otherwise, compounds described herein were not added to the NP-40 lysis buffer. The lysates were cleared by centrifugation at 13,200×g for 20 minutes at 4° C., and the clarified supernatants were incubated with Protein A-Sepharose beads (50 μl of 25 mg/ml in PBS per sample) for one hour at room temperature. The beads were pelleted (1000 rpm×1 min) and washed three times with final wash buffer (200 mM Tris-HCl, pH 8.0, 100 mM (NH4)2SO4, 1 M NaCl and 0.1% NP-40). The beads were suspended in LDS sample buffer, boiled and analyzed by Western blotting using 1:2000 goat anti-gp120 polyclonal antibody (ThermoFisher) and 1:2000 HRP-conjugated rabbit anti-goat IgG (ThermoFisher). The transmembrane Env was analyzed by Western blot with the 4E10 anti-gp41 antibody and HRP-conjugated goat anti-human IgG (Santa Cruz).

[2] = test system: HIV-1JR-FL Env on virions; assay: Single-molecule FRET of virion Env; conditions: saturating concentration (100 μM)
Experimental: Single-molecule fluorescence resonance energy transfer (smFRET): Viruses with HIV-1JR-FL Env that is double-tagged at V1-Q3 and V4-A1 were prepared for smFRET imaging, as described in Munro, Science 346, 759-763 (2014). The high (40:1) ratio of wild-type Env to tagged Env ensures that, on average, only one tagged protomer is available for imaging on a single virus particle. The Q3 and A1 double-tagged viruses allowed the incorporation of Cy3B and Cy5 fluorescent labels, respectively. Thus, the relative movements of the V1 and V4 regions in one gp120 subunit of an individual Env trimer could be monitored in real time. The smFRET images were acquired on an in-house-built total internal reflection fluorescent microscope, as described in Munro. HIV-1JR-FL viruses incubated with saturating concentrations (100 μM) of AEG-II-168 or control HIV-1JR-FL viruses without compound were used for smFRET imaging. Data were analyzed with the customized MATLAB (Mathworks) program SPARTAN as described in Juette, Nat Methods 13, 341-344 (2016). FRET trajectories meeting the criteria of quality (sufficient signal:noise ratio, single dye photobleaching, anti-correlated features between donor and acceptor intensity and fluorescence lifetime) were compiled into FRET histograms. Hidden Markov modeling was used to fit the FRET histograms with the sum of three Gaussian distributions. […]

Row | SMILES | Recognition of cell-surface Env by poorly neutralizing antibodies ([1]; 17b, 19b, 902090, F105) | Binding of bNAbs to mature cell-surface gp120 ([1]; PG9, PG16, PGT145, PGT151, 35022) | Virion Env conformational state by smFRET [2]
1 | COc1ccnc2[nH]cc(C(=O)C(=O)N3CCN(C(=O)c4ccccc4)C[C@H]3C)c12 [BMS-806, reference compound] | decreased the recognition of the uncleaved Env | increased the binding of some bNAbs | 
2 | COc1ccc(-c2ccc(CNC(=O)c3c(F)c(F)c(N=[N+]=[N-])c(F)c3F)o2)c2[nH]cc(C(=O)C(=O)N3CCN(C(=O)c4ccccc4)CC3)c12 [AEG-II-168] |  |  | maintained a State-1-dominant conformation
